Assay results: ChEMBL document CHEMBL5120882, “Medicinal Chemistry Perspective on Targeting Mono-ADP-Ribosylating PARPs with Small Molecules” (J Med Chem, 2022)

How the values were obtained:
[1] = molecular target: T1, Protein mono-ADP-ribosyltransferase PARP3 (Homo sapiens, UniProt Q9Y6F1); test: Inhibition of recombinant human PARP3 using IRE-1 as substrate incubated for 1 hr by chemiluminescence assay
T1 sequence (Q9Y6F1 whole entry): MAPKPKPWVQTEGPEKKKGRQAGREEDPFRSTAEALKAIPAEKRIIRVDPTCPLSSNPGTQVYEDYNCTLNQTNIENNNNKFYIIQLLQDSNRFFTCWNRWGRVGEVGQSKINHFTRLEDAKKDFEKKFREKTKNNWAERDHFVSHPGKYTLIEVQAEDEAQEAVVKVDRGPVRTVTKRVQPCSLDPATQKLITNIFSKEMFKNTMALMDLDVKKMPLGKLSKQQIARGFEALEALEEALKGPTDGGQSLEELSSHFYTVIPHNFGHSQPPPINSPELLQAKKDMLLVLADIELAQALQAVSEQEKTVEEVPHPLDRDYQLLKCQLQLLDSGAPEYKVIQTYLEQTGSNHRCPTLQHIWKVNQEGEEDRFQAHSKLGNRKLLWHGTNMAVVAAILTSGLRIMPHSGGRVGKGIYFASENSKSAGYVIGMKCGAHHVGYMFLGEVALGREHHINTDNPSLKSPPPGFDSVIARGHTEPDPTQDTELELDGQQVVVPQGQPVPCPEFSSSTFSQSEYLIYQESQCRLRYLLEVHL

[2] = molecular target: T2, Protein mono-ADP-ribosyltransferase PARP16 (Homo sapiens, UniProt Q8N5Y8); test: Inhibition of PARP16 (unknown origin) using IRE-1 as substrate incubated for 1 hr by chemiluminescence assay
T2 sequence (Q8N5Y8 whole entry): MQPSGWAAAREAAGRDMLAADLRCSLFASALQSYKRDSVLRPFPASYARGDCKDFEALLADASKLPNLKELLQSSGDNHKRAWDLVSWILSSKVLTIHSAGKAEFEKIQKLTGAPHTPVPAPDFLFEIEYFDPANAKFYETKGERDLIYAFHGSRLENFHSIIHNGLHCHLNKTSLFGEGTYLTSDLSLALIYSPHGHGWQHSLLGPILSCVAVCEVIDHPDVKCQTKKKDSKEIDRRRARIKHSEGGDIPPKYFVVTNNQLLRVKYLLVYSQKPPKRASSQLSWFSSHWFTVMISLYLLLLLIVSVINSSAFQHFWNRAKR

[3] = molecular target: Protein mono-ADP-ribosyltransferase PARP9 (Homo sapiens, UniProt Q8IXQ6); test: Inhibition of PARP9 (unknown origin)
NCI-H1373 = test: Antitumor activity against human NCI-H1373 cells in xenograft model assessed as tumor growth inhibition relative to control; type: functional; set-up: scale not given: the % may be the effect or the level left

Structure (SMILES) | IC50 [1] | IC50 [2] | IC50 [3] | Activity (NCI-H1373)
Nc1ncc2c(n1)CNC(=O)c1[nH]c(Br)c(Br)c1-2 | 3.4 µM | 0.427 µM |  | 
C[C@@H](COCCC(=O)N1CCN(c2ncc(C(F)(F)F)cn2)CC1)Nc1cn[nH]c(=O)c1C(F)(F)F [ATAMPARIB] |  |  | > 50 µM | 49%
